Literature values in patent US11077316B2, “Insertion devices and systems for production of emitted light internal to a medium and methods for their use” (Immunolight, LLC, priority 2016, dated 2021).
Like-named read-outs stand apart in the source and are kept apart here.

Key:
[1] = orange juice, high UV exposure of 100 mJ/cm^2
Acinetobacter baumannii = details: released nitric oxide, light 100 milliWatts per square centimeter
[2] = system: Zaire Ebola virus (ZEBOV); details: UV light 310 to 360 nm, ex situ in extracted blood
[3] = system: Venezuelan equine encephalitis virus (VEEV); details: INA exposed to full light conditions

In the case of `CC(=O)[O-].CC(=O)[O-].CCc1c(CC)c2cc3nc(cnc4cc(OCCOCCOCCOC)c(OCCOCCOCCOC)cc4ncc4nc(cc1[n-]2)C(CCCO)=C4C)C(C)=C3CCCO.O.[Lu+3]` [Motexafin lutetium], the “duration of skin photosensitivity” value (in vivo) is given as 24 to 48 h.
For `O=C1O[C@H]([C@@H](O)CO)C(O)=C1O` [Vitamin C], the “degradation of Vitamin C” value [1] is listed as 17%.
For [Mn(PaPy3)(NO)](ClO4), the “clearing of bacteria from treated areas of plates” value (Acinetobacter baumannii) is listed as “effectively cleared the bacteria”.
In the case of `Oc1cccc(-c2c3nc(c(-c4cccc(O)c4)c4ccc([nH]4)c(-c4cccc(O)c4)c4nc(c(-c5cccc(O)c5)c5ccc2[nH]5)CC4)C=C3)c1` [Foscan, Tetra (m-hydroxyphenyl) chlorin], the “duration of skin photosensitivity” value (clinical) is given as “approximately 2 weeks”.
In the case of `[N-]=[N+]=Nc1cccc2c(I)cccc12` [INA, 1,5-iodonaphthyl-azide], the “infectivity of ZEBOV after INA treatment” value [2] is listed as “completely noninfectious” and the “inactivation of virulent strain of VEEV” value [3] is listed as “efficiently inactivate”.
